Results on one compound are retold here after publication PMC8448162, “Single- and Multiple-Ascending-Dose Study of the Safety, Tolerability, and Pharmacokinetics of the Polymyxin Derivative SPR206” (Antimicrobial Agents and Chemotherapy, 2021).

One series in a line: clinical. The settings on record: human, in vivo; for CL renal: CLR (renal clearance). As to the method:
Maximum plasma concentration (Cmax), area under the concentration-time curve from time zero to last measurable time point (AUC0–t), area under the concentration-time curve from time zero to infinity (AUC0–inf), area under the concentration-time curve from time zero to tau (AUC0–tau), time to maximum concentration (Tmax), terminal elimination rate constant (kel), terminal half-life (t1/2), terminal clearance (CL), and volume of distribution (Vz) were determined. In addition, area under the concentration-time curve from 0 to 24 h after the start of infusion (AUC0–24) was determined for the SAD phase, and area under the concentration-time curve from time zero to 8 h from start of infusion (AUC0–8) on day 1 and 0 to 48 h (AUC0–48) following the last dose on day 14 as well as predose trough concentrations were determined for the MAD phase. Urine parameters included cumulative amount of drug excreted in successive urine intervals (Ae), renal clearance (CLR), fraction of cumulative fraction of dose recovered in urine as unchanged drug (Fe), and percentage fraction of cumulative fraction of dose recovered in urine as unchanged drug (Fe%). PK parameters were determined by noncompartmental analysis using Phoenix WinNonlin 8.1.
For the SAD phase, blood samples were obtained predose and at 30, 60, 75, 90, 105, 120, and 150 min and at 3, 5, 8, 12, and 24 h following the start of infusion. Urine was collected for PK assessment predose and over the intervals of 0 to 4 h, 4 to 8 h, 8 to 12 h, and 12 to 24 h after the start of infusion.
In the MAD phase, plasma samples for PK analysis were collected (i) on day 1—pre-dose and at 30, 60, 75, 90, 105, 120, and 150 min and at 3, 5, and 8 h following start of the first infusion; (ii) prior to the morning dose (within 10 min) on days 2, 3, 5, 7, 9, 11, and 13; and (iii) predose and 30, 75, 90, 105, 120, and 150 min and 3, 5, 8, and 12 h (day 14), 24, 36 (day 15), and 48 h (day 16) following start of the last infusion. Urine was collected for PK assessment on day 1 predose, over the intervals 0 to 4 h and 4 to 8 h after start of first infusion, and on days 14 and 15 over the intervals 0 to 4 h, 4 to 8 h, 8 to 12 h, and 12 to 24 h after start of day 14 infusion. Total 24-h urine for calculating CrCl was collected from the morning of day −1 to predose on day 1 and on days 15 and 16 over the interval from 24 to 48 h after the start of the day 14 infusion. Urine creatinine concentrations were measured using 24-h collections prior to the first dose on day 1 and over the 24 to 48 h following start of infusion of the last dose (day 14). Plasma and urine samples for SPR206 levels were analyzed using a validated liquid chromatography-tandem mass spectrometry (LC-MS/MS) method. The assay range for SPR206 was 50 to 5,000 ng/ml in plasma and 100 to 50,000 ng/ml in urine. In plasma, assay precision was 1.3 to 7.7%, accuracy was 1.2 to 9.5%, stability was 194 h at 4°C, and reproducibility was 98.4%. In urine, assay precision was 1.7 to 7.5%, accuracy was −4.8 to 7.3%, stability was 147 h at 4°C, and reproducibility was 97.8%.

For series [1] the following is noted: rat, in vivo; cited from earlier work.
For series [2] the following is noted: human; cited from earlier work.

Positions of bridges follow the written chain, without caps; N, C: chain ends. Non-standard residues stand in square brackets, D forms with d. Residues, ends and D or L forms follow the SMILES beside them. *: point of attachment. X1 = NC[C@@H](CC(=O)*)c1cccc(Cl)c1; Dab = NCC[C@H](N)C(=O)O; Dap = NC[C@H](N)C(=O)O

On to `CC(C)C[C@@H]1NC(=O)[C@@H](Cc2ccccc2)NC(=O)[C@H](CCN)NC(=O)[C@@H](NC(=O)[C@H](CN)NC(=O)[C@@H](NC(=O)C[C@H](CN)c2cccc(Cl)c2)[C@@H](C)O)CCNC(=O)[C@H]([C@@H](C)O)NC(=O)[C@H](CCN)NC(=O)[C@H](CCN)NC1=O` [SPR206] (X1-T[Dap][Dab][Dab][dF]L[Dab][Dab]T; lactam 3-C (inferred)), for which the CL renal in “clinical” (10 mg) was 0.567 mL/min; in the series “clinical” (25 mg), 4 mL/min; in “clinical” (50 mg), 13.7 mL/min; in “clinical” (100 mg) it was 25.8 mL/min; in the series “clinical” (150 mg), 35.5 mL/min; in “clinical” (200 mg) it was 29.5 mL/min. Further, the CL renal in “clinical” (300 mg) was 35.5 mL/min; in “clinical” (400 mg) it was 32.8 mL/min. Besides, in the series “clinical” (150 mg), the “CLR (renal clearance)” value stood at 1.55 ± 0.17 L/h. Also, in the series “clinical” (iv, 25 mg), the “Fe (%)” value was determined as 5.32 ± 4.38%. The “Fe (fraction of dose recovered in urine as unchanged drug)” value in “clinical” (iv, 25 mg) was 0.05 ± 0.04; in “clinical” (iv, 50 mg), 0.18 ± 0.02; in “clinical” (iv, 100 mg), 0.27 ± 0.05. Moreover, the dose excreted in “clinical” (iv, 200 mg, Fe (%)) came to 35.7 ± 3.85%; in the series “clinical” (iv, 200 mg, Fe (fraction of dose recovered in urine as unchanged drug)), 36 ± 4%; in the series “clinical” (iv, 300 mg, Fe (fraction of dose recovered in urine as unchanged drug)) it was 49 ± 8%; in “clinical” (iv, 400 mg, Fe (%)), 53.4 ± 6.21%; in “clinical” (iv, 400 mg, Fe (fraction of dose recovered in urine as unchanged drug)), 53 ± 6%. For the same compound, the “exposure in the kidney compared with PMB” value in series [1] is listed as “lower exposure in the kidney of rats”. Moreover, the protein binding in series [2] is recorded as less than 21%.
